Test results published in paper PMC10831936 (iScience, 2024).
pIC50: −log10 of the molar value.

System: HTR2A CRE
Experiment: ERBBprofiler barcoded CRE pathway sensor, HTR2A co-transfected
Conditions: Rattus norvegicus, PC-12, 6 h, read-out: HTR2A CRE IC50

COc1cc2ncnc(Nc3cccc(Cl)c3)c2cc1OC [AG1478, AG-1478 (Tyrphostin AG-1478)]
pIC50: 7.51
